Results as given in the NIST ThermoML archive (doi:10.1021/je3007666).

Assay: relative permittivity at zero frequency (dimensionless); xn = mol fraction of the nth substance listed
Details: 100 kPa, Liquid, Dielectrometer

CC(C)CO [2-methyl-1-propanol] + CC(C)(C)O
relative permittivity at zero frequency
Details	288.15 K	293.15 K	298.15 K	303.15 K	308.15 K
x2 = 0	19.51	18.71	17.96	17.23	16.53
x2 = 0.0497	19.46	18.65	17.85	17.09	16.37
x2 = 0.0999	19.37	18.52	17.74	16.96	16.21
x2 = 0.1502	19.24	18.38	17.57	16.78	16.05
x2 = 0.2002	19.09	18.24	17.43	16.62	15.84
x2 = 0.2497	18.94	18.08	17.25	16.42	15.63
x2 = 0.2998	18.78	17.89	17.08	16.22	15.44
x2 = 0.3507	18.6	17.71	16.88	16.01	15.2
x2 = 0.4003	18.43	17.53	16.7	15.8	14.97
x2 = 0.4497	18.26	17.36	16.49	15.57	14.74
x2 = 0.4998	18.11	17.15	16.3	15.34	14.47
x2 = 0.5501	17.93	16.96	16.07	15.07	14.22
x2 = 0.6012	17.74	16.74	15.83	14.8	13.93
x2 = 0.649	17.53	16.5	15.58	14.52	13.61
x2 = 0.7003	17.3	16.24	15.28	14.2	13.27
x2 = 0.751	17.02	15.93	14.96	13.84	12.91
x2 = 0.8007	16.68	15.59	14.59	13.46	12.49
x2 = 0.8499	16.3	15.17	14.17	13.03	12.06
x2 = 0.9002	15.8	14.67	13.69	12.53	11.55
x2 = 0.9489	15.21	14.08	13.13	11.97	11.01

CC(C)CO [2-methyl-1-propanol] + CCC(C)O
relative permittivity at zero frequency
Details	288.15 K	293.15 K	298.15 K	303.15 K	308.15 K
x2 = 0	19.51	18.71	17.96	17.23	16.53
x2 = 0.0488	19.46	18.66	17.9	17.17	16.47
x2 = 0.1011	19.41	18.61	17.85	17.11	16.4
x2 = 0.1488	19.36	18.55	17.78	17.05	16.34
x2 = 0.2005	19.31	18.49	17.72	16.98	16.27
x2 = 0.2489	19.25	18.43	17.66	16.92	16.2
x2 = 0.3013	19.2	18.38	17.59	16.85	16.13
x2 = 0.3511	19.14	18.31	17.53	16.78	16.05
x2 = 0.3993	19.09	18.25	17.46	16.7	15.97
x2 = 0.4473	19.03	18.19	17.39	16.63	15.89
x2 = 0.4984	18.98	18.13	17.32	16.56	15.81
x2 = 0.5512	18.92	18.06	17.25	16.48	15.73
x2 = 0.5999	18.87	18	17.18	16.4	15.65
x2 = 0.649	18.81	17.94	17.1	16.32	15.56
x2 = 0.7017	18.76	17.88	17.03	16.24	15.48
x2 = 0.7502	18.71	17.81	16.96	16.16	15.39
x2 = 0.7989	18.66	17.75	16.89	16.08	15.3
x2 = 0.851	18.61	17.69	16.81	16	15.21
x2 = 0.9003	18.56	17.63	16.74	15.92	15.12
x2 = 0.9499	18.51	17.57	16.67	15.83	15.03

CC(C)CO [2-methyl-1-propanol] + CCCCO
relative permittivity at zero frequency
Details	288.15 K	293.15 K	298.15 K	303.15 K	308.15 K
x1 = 0.0505	19.03	18.3	17.59	16.92	16.26
x1 = 0.1011	19.05	18.31	17.61	16.93	16.27
x1 = 0.1496	19.06	18.33	17.62	16.94	16.28
x1 = 0.2001	19.08	18.34	17.63	16.95	16.29
x1 = 0.2488	19.1	18.36	17.65	16.97	16.31
x1 = 0.3011	19.12	18.38	17.66	16.98	16.32
x1 = 0.3497	19.14	18.4	17.68	16.99	16.33
x1 = 0.399	19.16	18.41	17.7	17.01	16.34
x1 = 0.4511	19.18	18.43	17.71	17.02	16.36
x1 = 0.5021	19.21	18.44	17.73	17.04	16.37
x1 = 0.5489	19.23	18.46	17.75	17.06	16.39
x1 = 0.6004	19.26	18.5	17.77	17.07	16.4
x1 = 0.6488	19.28	18.52	17.79	17.09	16.42
x1 = 0.6975	19.31	18.55	17.81	17.11	16.43
x1 = 0.751	19.34	18.57	17.83	17.13	16.45
x1 = 0.8004	19.37	18.6	17.86	17.15	16.46
x1 = 0.848	19.4	18.62	17.88	17.17	16.48
x1 = 0.8995	19.43	18.65	17.9	17.19	16.5
x1 = 0.9506	19.47	18.68	17.93	17.21	16.52
x1 = 1	19.51	18.71	17.96	17.23	16.53

CC(C)(C)O [2-methylpropan-2-ol] + CCCCO
relative permittivity at zero frequency
Details	288.15 K	293.15 K	298.15 K	303.15 K	308.15 K
x1 = 0.0501	18.96	18.21	17.49	16.81	16.12
x1 = 0.1012	18.93	18.16	17.42	16.68	15.97
x1 = 0.1503	18.85	18.04	17.29	16.53	15.81
x1 = 0.2003	18.75	17.92	17.15	16.37	15.62
x1 = 0.2497	18.61	17.79	16.99	16.19	15.44
x1 = 0.299	18.48	17.63	16.85	16.01	15.25
x1 = 0.349	18.36	17.5	16.69	15.83	15.07
x1 = 0.3993	18.25	17.35	16.53	15.65	14.87
x1 = 0.4505	18.13	17.22	16.38	15.45	14.63
x1 = 0.5001	18.01	17.06	16.19	15.25	14.42
x1 = 0.5511	17.89	16.91	16.01	15.02	14.15
x1 = 0.5998	17.74	16.73	15.82	14.79	13.89
x1 = 0.649	17.6	16.54	15.58	14.51	13.59
x1 = 0.7001	17.39	16.31	15.32	14.21	13.25
x1 = 0.7503	17.15	16.03	15	13.88	12.89
x1 = 0.8003	16.84	15.7	14.63	13.48	12.49
x1 = 0.8497	16.45	15.26	14.21	13.03	12.04
x1 = 0.899	15.96	14.77	13.71	12.53	11.55
x1 = 0.95	15.29	14.15	13.15	11.97	11
x1 = 1	14.49	13.38	12.49	11.34	10.4
